Data published in patent US20210369768A1, “METAL DI-AMINO ACID CHELATES OR METAL TRI-AMINO ACID CHELATES” (Balchem Corporation, priority 2020, published 2021).
Peptide text beside a SMILES is read from it.

Experiments:
[1] = Stability of the complex in solution via 1H NMR; format: physicochemical; conditions: 1H NMR in D2O
Source text: At 72 hrs, an observable upfield shift occurs, which may be due to isomer formation. There is no observable change in proton integration. NMR taken in D2O.

Caco-2 cells [2] = tested on: Caco-2 cells
Description: (§1) Magnesium uptake colorimetric assay kits were purchased from BioVision (Catalog #385-100). […] HEK-293 (ATCC® CRL-1573TM) cells, Caco-2 (ATCC® HTB-37TM) cells, and Dulbecco's Modified Eagle Medium (ATCC® 30-2002) were purchased from ATCC. Penicillin streptomycin (10,000 U/mL), fetal bovine serum (FBS), and trypsin/EDTA (0.25%) were purchased from Gibco™.
(§2) Caco-2 cells were cultured from Liquid N2 frozen stocks and rapidly thawed to RT using a water bath at 37° C.; cryopreservation media was removed with a micropipette after cells were pelleted via centrifugation for 8-10 minutes at 125 g. Cells were resuspended in 1 mL of room temperature DMEM and cultured in 14 mLs DMEM (total volume of 15 mLs) with a seeding density of 3.6×10^4 cells/cm^2 in a T-75 cm^2 culture flask and left to grow in an incubator at 37° C. and 5% CO2. Cells were sub-cultured at 90% confluency, and sub-culturing occurred a minimum of five times before use in uptake assays. When ready-to-use cultures were at 90% confluency, old DMEM media was pipetted off and 3-4 mLs of trypsin was added—the trypsinized culture flask was placed back in the incubator for 5-10 minutes to detach cells. Once detached, the culture flask was rinsed with 6-8 mLs of fresh DMEM to neutralize the trypsin -cells for uptake assays were counted utilizing a DeNovix CellDrop™. Once counted, cells were pelleted down via centrifugation at 125 g for 8-10 minutes, and the neutralized trypsin-media supernatant was pipetted off. Cells were resuspended in 5 mLs magnesium assay buffer for cellular uptake assay.
(§3) Cellular uptake data was collected at incubation times of 1 hr (required kit incubation time), 4 hrs (the amount of time required for uptake in the GI), and 24 hrs (the amount of time required for a complex to clear the GI).
(§4) Kinetics were evaluated utilizing the slope of the line of uptake of the complex in the Caco-2 cells.

Caco-2 cells [3] = experiment: Cellular uptake of magnesium complexes in Caco-2 cells (BioVision colorimetric magnesium uptake assay kit); conditions: Example 12, FIG. 72
Description: as §1, §2, §3, §4

cellular uptake at 24 hrs (Caco-2 cells [2]) | Compound | stability in solution [1] | cellular uptake in CaCo-2 cell line relative to other magnesium complexes (Caco-2 cells [3])
cell saturation | NCC(=O)NCC(=O)NCC(=O)[O-].[Mg+2].[OH-] [Mg(G3), magnesium 2-[[2-[(2-aminoacetyl)amino]acetyl]amino]acetic acid chelate] (H-Gly-Gly-Gly-OH) | considerable stability for periods up to 72 hrs | –
– | NCC(=O)[O-].NCC(=O)[O-].[Mg+2] [MgBG, magnesium bisglycinate, reference compound] | – | significantly less cellular uptake than Mg(G3)
– | magnesium diglycine [MgG2] | – | relatively linear uptake in the CaCo-2 cell line similar to that of both magnesium chloride (MgCl2) and magnesium bisglycinate (MgBG)
